The record followed here is patent US20030100477A1, “Medicinal compositions for suppressing beta-amyloid production” (priority 2002, published 2003).

The subject of experiment [1] is APP(Thr668) phosphorylation. The experiment is described as follows: APP(Thr668) phosphorylation by western blotting in APP695 adenovirus-infected hippocampus primary culture nerve cells. The note with it: for APP phosphorylation suppressing action / concentration at which APP phosphorylation suppressing action was found: rat hippocampus primary culture nerve cells, human APP695 adenovirus, 1 day of treatment; for expressed amount of total APP detected with anti-APP antibody 22C11: same cells and treatment, Alsterpaullone 10 μM, Roscovitine 50 μM. Type of experiment: cell-based, rat. On the procedure:
The APP gene-containing recombinant adenovirus vector was converted into linear strand by PacI treatment and introduced into HEK293 cells by the Lipofectamine method (LIFE TECHNOLOGIES), and 3 to 5 days thereafter when cells were pealed off from the plate, all of the cells were recovered. The recombinant adenovirus was obtained from the supernatant by repeating freezing-thawing step of the cells. The thus obtained recombinant adenovirus was prepared in a large amount by repeating infection of HEK293 cells and then concentrated and purified by the CsCl method and used in the test.
The thus obtained PVDF membrane was soaked in Block Ace (Daiichi Pure Chemicals) at 4° C. overnight to carry out blocking. […] The anti-serum obtained by the immunization was used by subjecting to adsorption treatment using an immunogen peptide before introduction of phosphate group and then purifying by affinity chromatography using the phosphate group-introduced antigen peptide. Also, an anti-APP monoclonal antibody 22C11 (Roche Molecular Biochemicals) was used in the determination of total APP amount (combined APP amount of phosphorylated state of APP and non-phosphorylated state of APP). […] After completion of the reaction, washing with PBS-T at room temperature for 10 minutes was repeated four times and then this was subjected to the reaction with a secondary antibody. As the secondary antibody, 20,000 times diluted HRP-labeled anti-rabbit and anti-mouse IgG antibodies (Amersham Pharmacia Biotech) were used.
A general note: A western blot detects proteins with antibodies after separation by electrophoresis.

The target of another experiment is T1, Cdk5 and p25 (Homo sapiens, UniProt Q00535).
T1 construct: Complete length of the human Cdk5 gene was amplified from total RNA; made in house; host or cells: Sf9 insect cells (baculovirus)
T1 sequence (Q00535 2-292): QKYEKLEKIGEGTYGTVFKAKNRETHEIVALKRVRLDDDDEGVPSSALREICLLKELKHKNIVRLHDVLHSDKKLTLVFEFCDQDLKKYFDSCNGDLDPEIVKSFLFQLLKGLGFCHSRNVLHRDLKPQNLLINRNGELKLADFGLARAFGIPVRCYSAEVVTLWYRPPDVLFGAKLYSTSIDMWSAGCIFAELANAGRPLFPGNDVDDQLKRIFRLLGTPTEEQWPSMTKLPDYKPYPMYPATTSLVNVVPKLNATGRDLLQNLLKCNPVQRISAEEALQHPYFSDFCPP
T1 sequence (Q15078 99-307 partner limits assumed): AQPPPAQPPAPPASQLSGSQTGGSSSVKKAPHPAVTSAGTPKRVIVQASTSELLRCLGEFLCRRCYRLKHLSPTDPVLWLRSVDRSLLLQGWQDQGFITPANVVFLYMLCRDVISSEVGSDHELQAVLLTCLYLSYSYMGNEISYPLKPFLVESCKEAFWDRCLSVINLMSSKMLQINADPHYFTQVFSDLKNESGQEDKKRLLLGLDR
The experiment is described as follows: Cdk5 kinase inhibitory activity, SPA method with biotinylated histone and 33P-ATP. Type of experiment: biochemical. To be noted: recombinant human Cdk5/p25 1:1, SPA method. On the procedure: The total RNA was obtained by adding 1 ml of ISOGEN reagent (Nippon Gene) to 1×10^6 cells, mixing the resulting lysate with ⅕ volume of chloroform, centrifuging the mixture at 15,000 rpm for 10 minutes, mixing the resulting supernatant with ½ volume of 2-propanol and further centrifuging the mixture at 15,000 rpm for 20 minutes. The thus obtained RNA was dissolved in water and, after measurement of its concentration, subjected to PCR reaction (Titans one tube RT-PCR kit (Boehringer Mannheim)). […] Each of the genes was introduced into a Bacmid preparation vector pFASTBac-Hta (Gibco BRL) which had been designed such that His-tag is added to N-terminus, making use of the HindIII and BamHI sites designed in the primers. Each of the genes introduced into pFASTBac was introduced into DH10Bac to carry out recombination in E. coli, thereby obtaining respective recombinant Bacmids. The thus obtained Bacmid was introduced into Sf9 cells using cellfectin reagent (Gibco BRL) to obtain baculovirus. […] Purification of the recombinant proteins was carried out making use of the 6× His tag added to the N-terminus.
After though washing with the buffer A, this was washed with a buffer B (20 mM Tris-HCl, 1 M KCl, 10 mM 2-ME, 10% glycerol). Finally, fractions eluted with a buffer C (20 mM Tris-HCl, 100 mM KCl, 100 mM imidazole, 10 mM 2-ME, 10% glycerol) were recovered, dialyzed against a sample solution (50 mM HEPES-KOH, 10 mM MgCl2, 2.5 mM EGTA, 0.1 mM PMSF) and used as a purified preparation.
A 1:1 mixture of the purified Cdk5 protein and purified p25 obtained above was used as the enzyme source at the time of kinase activity measurement. Histone HI (Sigma) was biotinylated and used as the substrate. Biotinylated histone was prepared by allowing histone to react with 10 equivalents of biotin (Ez-link Sulfo-NHS-LC-Biotin, Pierce) as molar ratio in the presence of 50 mM sodium bicarbonate at room temperature for 6 hours. Free biotin was removed by carrying out dialysis using TBS, and the resulting solution was used as the stock solution. Measurement of kinase activity was carried out in accordance with the SPA method (Amersham). […] This was allowed to stand at room temperature for 15 minutes and centrifuged (1,700 rpm, 2 min), and then amount of the isotope incorporated in the substrate was measured by Topcount […].

In a further experiment the test system is Aβ1-40 production. The experiment is described as follows: Aβ1-40 production, sandwich ELISA of culture supernatant of APP695 adenovirus-infected hippocampus primary culture nerve cells. Background: An ELISA detects its analyte on a solid surface through an enzyme-linked reagent.
The subject of another experiment is Aβ1-42 production. The experiment is described as follows: Aβ1-42 production, sandwich ELISA of culture supernatant of APP695 adenovirus-infected hippocampus primary culture nerve cells. The note with it: culture supernatant after 1 day of treatment, control DMSO (FIG. 4). Type of experiment: cell-based, rat.
[2] abbreviates: culture supernatant after 1 day of treatment, control DMSO (FIG. 3, FIG. 5).

Procedure for Aβ1-40 production: The fetus was sterilized with ethanol for disinfection in a clean bench, the total brain was extracted and recovered in a dish containing a serum-free medium (SUMILON, Sumitomo Bakelite), and the hippocampus was extracted using a precision pincette under a stereoscopic microscope. The hippocampus was transferred into a 50 ml tube, tissues were precipitated by standing to discard the supernatant by aspirating and a cell dispersing solution (PBS containing 1% papain, 150 U/ml DNase I, 0.02% L-cysteine, 0.02% BSA and 0.5% glucose) was added thereto, and the mixture was incubated at 37° C. for 15 minutes and then centrifuged (1,000 rpm, 4° C., 5 min). The supernatant was removed by aspiration, 10 ml of the serum-free medium was added to the sediment, pipette treatment was carried out several times, and then cell masses were removed using a filter to obtain a cell suspension. The number of cells was counted using trypan blue, and 1.5×10^5 of the cells were inoculated into a poly-L-lysine-coated 48 well culture plate. In order to effect sufficient differentiation, they were cultured at 37° C. for 10 days in a CO2 incubator and then used in the test.
Infection with adenovirus was carried out on the 10th day of the culturing. A virus suspension of 1.5×10^8 particles was suitably diluted and added to a medium to an MOI (multiplicity of infection) value of 1,000 based on 1.5×10^5 cells. A sample was recovered on the 4th day of the infection.
Culture supernatants recovered 24 hours after the addition of compounds to be tested were used as the samples for Aβ production measurement. Amount of Aβ in each supernatant was determined by sandwich ELISA. Firstly, an anti-Aβ monoclonal antibody 6E10 (Wako) diluted to 10 μg/ml with 100 mM phosphate buffer was dispensed in 50 μl/well portions into a plate for ELISA (Maxisorp, Nunc) and allowed to stand overnight at 4° C. to effect adhesion of the 6E10 antibody to the plate. The antibody was recovered on the next day, and 200 μl of Block Ace was added to each well to carry out blocking at 4° C. overnight or more. […] The Aβ for calibration curve preparation was prepared in the following manner. […] A 10 μl portion of the stock solution was transferred into a tube, HFIP was evaporated using a vacuum concentrator and then the residue was again dissolved in 10 μl of DMSO to an Aβ concentration of 1 mg/ml. Serial dilutions of the solution for Aβ calibration curve measurement were prepared within the range of from 0.2 to 10 ng/ml. The plate after the reaction with a sample or Aβ for calibration curve preparation was washed 4 times with the plate washer and then allowed to react with primary antibodies. Polyclonal antibodies R163 (Aβ1-40 specific antibody) and R165 Aβ1-42 specific antibody), which specifically recognize C-terminus of Aβ, were used as the primary antibodies. […] Each antibody was diluted 1,000 times with TBS-T containing 25% Block Ace, dispensed in 60 μl/well portions into the plate and then allowed to undergo the reaction at room temperature for 2 hours. After the reaction, the plate was washed 4 times using the plate washer and then the reaction with a secondary antibody was carried out. An HRP-labeled anti-rabbit IgG antibody was used as the secondary antibody, diluted 8,000 times with TBS-T containing 25% Block Ace and dispensed in 60 μl/well portions, and then the reaction was carried out at room temperature for 2 hours. After completion of the reaction, the plate was washed 4 times using the plate washer and then chemiluminescence by a POD chemiluminescence reagent (Boehringer Mannheim) was measured by ML3000 Plate Reader (Dynatech Laboratories).

Consider `CCn1cnc2c(Nc3cccc(OC)c3)nc(N[C@@H]3CCCC[C@@H]3N)nc21` [A], for which the “APP phosphorylation suppressing action” value in experiment [1] is given as “found”. At Cdk5 and p25, the Cdk5 inhibitory activity entry was “verified the Cdk5 inhibitory activity”. Besides, the Aβ1-40 production result with Aβ1-40 production (setting [2]) was “confirmed”.

As to `O=C1Cc2c([nH]c3ccc([N+](=O)[O-])cc23)-c2ccccc2N1` [Alsterpaullone, reference compound], in experiment [1], the “concentration at which APP phosphorylation suppressing action was found” value came out at 10 µM and the “expressed amount of total APP detected with anti-APP antibody 22C11” value was “no changes”. In addition, the Aβ1-42 production result with Aβ1-42 production is recorded as “suppressed”. Further, the Cdk5 inhibitory activity result on Cdk5 and p25 was “verified the Cdk5 inhibitory activity”. The Aβ1-40 production entry with Aβ1-40 production (setting [2]) is reported as “suppressed”.

Consider `CCn1cnc2c(Nc3cccc(OC)c3)nc(NC3CCC(N)CC3)nc21` (stereo not drawn) [B], for which the “APP phosphorylation suppressing action” value in experiment [1] is given as “found”. Besides, at Cdk5 and p25, the Cdk5 inhibitory activity result is on record as “verified the Cdk5 inhibitory activity”. The Aβ1-40 production entry in the experiment with Aβ1-40 production (setting [2]) is given as “confirmed”.

With `CCn1cnc2c(Nc3cccc(OC)c3)nc(N[C@H]3CC[C@H](O)CC3)nc21` [C], in experiment [1], the “APP phosphorylation suppressing action” value is recorded as “found”. Besides, the Cdk5 inhibitory activity entry on Cdk5 and p25 was “verified the Cdk5 inhibitory activity”. Further, the Aβ1-40 production entry in the experiment with Aβ1-40 production (setting [2]) is recorded as “confirmed”.

In the case of `N[C@H]1CC[C@H](Nc2nc(Nc3cccc(Cl)c3)c3ncn(C4CCCC4)c3n2)CC1` [D], the “APP phosphorylation suppressing action” value in experiment [1] was “found”. The Cdk5 inhibitory activity result on Cdk5 and p25 was “verified the Cdk5 inhibitory activity”. For the same compound, the Aβ1-40 production result with Aβ1-40 production (setting [2]) was “confirmed”.

Turning to `CC[C@H](CO)Nc1nc(NCc2ccccc2)c2ncn(C(C)C)c2n1` [Roscovitine, reference compound], in experiment [1], the “concentration at which APP phosphorylation suppressing action was found” value stood at 50 µM and the “expressed amount of total APP detected with anti-APP antibody 22C11” value was “no changes”. Further, the Aβ1-40 production result in the experiment on Aβ1-40 production (setting [2]) was “confirmed”.

With “Cdk5 D144N: dominant negative mutant of Cdk5 (144th aspartic acid converted into asparagine), expressed from adenovirus vector”, in the experiment on Aβ1-40 production (cells on 7th day co-infected with APP695 adenovirus and Cdk5 D144N adenovirus, supernatant 2 days later, control GFP adenovirus), the Aβ1-40 production result is listed as “suppressed”.
